# Several values for one entry are separate records, joined by “and”; a condition that tells them apart may be missing. Equal values may be shown once. Read-outs that look alike come from different tables or passages of the source.
# Target: T1, FpvB R648C (Pseudomonas aeruginosa, UniProt A0A0H2ZFZ5, R648C)
# T1 sequence (A0A0H2ZFZ5 23-802 R648C): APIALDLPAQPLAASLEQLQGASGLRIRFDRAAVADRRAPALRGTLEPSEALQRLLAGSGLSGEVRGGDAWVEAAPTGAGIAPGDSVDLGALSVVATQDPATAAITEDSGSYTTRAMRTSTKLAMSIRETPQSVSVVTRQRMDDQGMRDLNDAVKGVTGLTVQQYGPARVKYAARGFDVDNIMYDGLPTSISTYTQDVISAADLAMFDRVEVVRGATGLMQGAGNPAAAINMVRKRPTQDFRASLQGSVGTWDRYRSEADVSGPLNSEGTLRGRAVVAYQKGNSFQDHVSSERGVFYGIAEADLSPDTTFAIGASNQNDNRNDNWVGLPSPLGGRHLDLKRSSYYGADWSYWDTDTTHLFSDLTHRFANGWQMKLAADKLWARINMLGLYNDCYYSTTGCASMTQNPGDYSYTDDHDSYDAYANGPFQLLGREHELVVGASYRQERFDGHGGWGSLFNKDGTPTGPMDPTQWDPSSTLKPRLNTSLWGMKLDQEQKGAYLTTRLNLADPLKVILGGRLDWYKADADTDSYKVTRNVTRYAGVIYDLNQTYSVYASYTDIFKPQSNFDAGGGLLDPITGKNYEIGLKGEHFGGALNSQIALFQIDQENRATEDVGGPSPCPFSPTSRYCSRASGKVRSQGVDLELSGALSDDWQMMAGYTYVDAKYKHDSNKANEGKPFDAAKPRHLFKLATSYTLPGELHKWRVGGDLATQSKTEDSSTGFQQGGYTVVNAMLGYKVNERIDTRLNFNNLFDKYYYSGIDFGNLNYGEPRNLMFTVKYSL
# Test: Whole-cell fluorescence quenching, FpvB R648C in quadruple mutant
# Format: binding
# Conditions: FpvB R648C in quadruple mutant, two-site model
# Protocol: Quenching assays with the two xenosiderophores were repeated for the quadruple TBDT mutant expressing WT FpvB, FpvB R191A R648C, or W347V R648C.
# Cells were cultured overnight in LB with carbenicillin (200 μg/mL) at 37°C with shaking at 200 rpm. Cells were subcultured (1:200 dilution) in 10:90 plus 2% arabinose for 4 h without carbenicillin at 37°C with shaking at 200 rpm. Cells were harvested by centrifugation for 5 min and 6,000 × g and resuspended in sterile 1× phosphate-buffered saline (PBS) (pH 7.4); 1× PBS was made from a 10× stock (80 g NaCl, 2 g KCl, 26.8 g Na2 HPO4-7H2O, 2.4 g KH2PO4 in 1 L of deionized H2O) with 10 μM Alexa Fluor 594 C5 maleimide for microscopy or fluorescein-5-maleimide for fluorescence quenching and recovery assays and incubated in the dark at room temperature for 30 min on a shaking incubator at 37°C (200 rpm). Excess dye was quenched with 1 mM dithiothreitol (DTT) (Sigma) to stop the reaction. Cells were washed 3× with PBS. For fluorescence recovery assays, cells were incubated with 1× PBS plus 0.4% glucose at 37°C with shaking at 200 rpm. Glucose was prepared as a 20% stock (wt/vol) in 1× PBS and filter sterilized. Cells were spun down and washed 3× with 1× PBS and resuspended in 1× PBS for quenching assays and 1× PBS plus 0.4% glucose for fluorescence recovery assays.
# For fluorescence quenching and recovery assays, cells were diluted to an OD600 of 0.1 for both types of assays, and 148 μL was added into wells of a 96-well black plate (Corning). Fluorescence was recorded for 5 min at 1-min intervals at 37°C (BioTek Neo; excitation, 494 nm; emission, 520 nm). After 5 min, 2 μL of each serial dilution for ferrioxamine-Fe^3+, ferrichrome-Fe^3+, and pyoverdine-Fe^3+ or DMSO for vehicle controls was added to each well. Fluorescence was recorded immediately for quenching assays and for 1 h at 1-min intervals for fluorescence recovery assays. Background fluorescence was subtracted from all fluorescence readings and 1-F/F0 was used to calculate the degree of quenching, where F0 is the initial fluorescence. Kd was calculated using GraphPad Prism using a one-site specific binding model or a two-site model. For fluorescence recovery assays, background was subtracted from all fluorescence readings and F/F0 expressed as a percent of control was plotted versus time.
smiles,measurement,setting,value
CC(=O)N(O)CCCCCNC(=O)CCC(=O)N(O)CCCCCNC(=O)CCC(=O)N(O)CCCCCN [ferrioxamine B],Kd,read-out: Kd1 (converted),0.178 µM and 0.17 µM
same,Kd,read-out: Kd2 (converted),660 µM and 600 µM

# Source: paper PMC9973354 (mBio, 2022)
